The values that follow come from patent US7294643B2, “UK-1 analogues: methods of preparation and use” (Board of Regents, The University of Texas System, priority 2002, dated 2007).

The term IC50 denotes the concentration at which inhibition is half-maximal. Higher therefore signals a need for much substance.

The nature of data set [1]: alamarBlue cytotoxicity, range over three cell lines. It is filed as cell-based. The conditions noted are these: human; range of concentrations required to inhibit growth of MCF-7, HT-29, and PC-3 cells by 50%. As for the experimental part: (§1) Cytotoxicity Assays. Cell culture cytotoxicity assays were performed using the. alamarBlue method, as described by Ahmed et al., J. Immun. Methods 1994, 170, 211-224, which is incorporated herein by reference. Briefly, aliquots of 100 μL of cell suspension (1.0-2.5×10^3 cells) was placed in 96-well microtiter plates in an atmosphere of 5% CO2 at 37° C. After 24 hours, 100 μL of culture medium and 2 μL of compound in vehicle (culture media with 40% pyridine) or vehicle alone were added, and the plates incubated an additional 72 hours. The final pyridine concentration in all cases was 0.4%; at this pyridine concentration there was no affect on the growth of cells compared to cells in culture media without added pyridine. […] After the culture media had been removed from each well, 200 μL of fresh media and 20 μL of 90% alamarBlue reagent were added, followed by an additional 6 h incubation. The fluorescent intensity was measured using a Spectrafluor Plus plate reader with excitation at 530 nm and emission at 590 nm. Results are reported as IC50 values, the average concentration required to produce a decrease of fluorescent intensity of 50% relative to vehicle-treated controls in two separate determinations.
For orientation: Resazurin is reduced to fluorescent resorufin, in cell work by metabolically active cells.

In data set [2] the test system is SK-N-SH. As to the kind of experiment: alamarBlue cytotoxicity assay, SK-N-SH. It is filed as cell-based. The conditions noted are these: Homo sapiens. As for the experimental part: as §1
For data set [3], the system named is yeast, or fungi. The conditions noted are these: yeast, or fungi, concentrations as large as 250 μM; cited from earlier work.
The subject of data set [4] is Supercoiled ΦX174 DNA. As to the kind of experiment: Cleavage of supercoiled DNA, agarose gel electrophoresis. The data set is classed as biochemical. The conditions noted are these: 37° C. As for the experimental part: Supercoiled Φ[…] DNA (50 μM) was incubated for 24 hrs in pH 8 Tris buffer (10 mM) at 37° C. with UK-1 (15-25 μM), H2O2 (5 μM-5 mM), or NiCl2 (15-25 μM), or a combination of these agents. Agarose gel electrophoresis was carried out to resolve the DNA products. […] There was an increase in the proportion of nicked, relaxed DNA product in the presence of an oxidant (e.g., H2O2), but no linear DNA that would indicate double-stranded DNA cleavage. […] FIG. 5 depicts cleavage of supercoiled DNA by UK-1 in the presence of oxidizing agents and metal ions. Supercoiled Φ[…] DNA (50 μM bp) was incubated with UK-1 (23 μM), NiCl2 (23 μM), H2O2 (5 mM), or combinations of these agents at 37° C. for 24 h and the DNA products subjected to agarose gel electrophoresis with ethidium bromide staining. Lanes: C, untreated supercoiled DNA; 1, DNA+UK-1; 2, DNA+NiCl2; 3, DNA+H2O2; 4, DNA+UK-1+NiCl2; 5, DNA+UK-1+H2O2; 6, DNA+UK-1+NiCl2+H2O2; 7, DNA+NiCl2+H2O2.

For data set [5], the system named is HL60 cells. Nature of the data set: alamarBlue cytotoxicity assay, HL60. The data set is classed as cell-based, human. The conditions noted are these: HL60, alamarBlue, 72 h. As for the experimental part: as §1
The test system of data set [6] is IMR-32 neuroblastoma cell line. As to the kind of experiment: alamarBlue cytotoxicity assay, IMR-32. The data set is classed as cell-based. The conditions noted are these: Homo sapiens. As for the experimental part:
as §1

Data set [7] relates to A549. Nature of the data set: alamarBlue cytotoxicity assay, A549. The data set is classed as cell-based. The conditions noted are these: Homo sapiens. Here is the method:
as §1

Data set [8] relates to NGP neuroblastoma cell line. As to the kind of experiment: alamarBlue cytotoxicity assay, NGP. The data set is classed as cell-based. Here is the method:
as §1

Data set [9] deals with DU145. As to the kind of experiment: alamarBlue cytotoxicity assay, DU145. It is filed as cell-based. The conditions noted are these: Homo sapiens, DU-145. Here is the method:
as §1

The test system of data set [10] is CHP-212. As to the kind of experiment: alamarBlue cytotoxicity assay, CHP-212. The conditions noted are these: Homo sapiens; CHP-212, alamarBlue. It is filed as cell-based. As for the experimental part: as §1
Data set [11] has as its system SK-N-D7. As to the kind of experiment: alamarBlue cytotoxicity assay, SK-N-D7. It is filed as cell-based. As for the experimental part: as §1
Data set [12] has as its system BT-20. As to the kind of experiment: alamarBlue cytotoxicity assay, BT-20. It is filed as cell-based. The conditions noted are these: Homo sapiens; BT-20, alamarBlue. As for the experimental part:
as §1

Data set [13] relates to Pseudomonas aeruginosa. As to the kind of experiment: Antimicrobial bioassay, P. aeruginosa. It is filed as cell-based. The conditions noted are these: concentrations up to 50 μg/mL.
A short description of data set [14]: Metal ion binding by continuous variation, Fe3+. The conditions noted are these: Fe^3+, methanol, 1:1 complex. Here is the method: (§2) Previous work indicated the metal ion binding mechanism of UK-1, so the method of continuous variation was used to determine the ability of selected UK-1analogues to bind a variety of metal ions. Methanolic solutions of UK-1 or UK-1 analogues and metal ion salts [Ca(NO3)2, Mg(NO3)2, Zn(NO3)2, or Fe(NO3)3] at various molar ratios, and 20 μM combined total concentration, were prepared and the absorbance at 418 nm was determined. […] Compound 2.1 does bind with Ca^2+ and Zn^2+ better than UK-1.
(§3) Continuous variation plots. A 100 μM solution of UK-1 or analogue and 100 AM solutions of Ca(NO3)2, Mg(NO3)2, Zn(NO3)2, or Fe(NO3)3 were prepared in methanol. From these stock solutions, 15 samples (1 mL) of varying mole fraction of the metal ion were prepared at a constant, combined concentration of 20 μM for the ligand and the metal ion. The change in absorbance was monitored from 500 to 200 nm for each sample using as a reference a 1 mL solution containing the same concentration of ligand as the sample being measured but without the metal ion. The maximum absorbance change was typically around 418 nm but varied somewhat for each metal ion. The absorbance at 418 nm was plotted as a function of the mole fraction of the metal ion and the maximum absorbance change was determined. The absorbance of a sample containing the metal ion concentration corresponding to this maximum change and a 15 fold excess of metal ion at this ligand concentration, subtracted from a reference containing the same concentration of ligand but no metal ion was used to normalize the curve and obtain the conditional formation constant as described in the paper to Likussar, W.; Boltz, D. F. Anal. Chem. 1971, 43, 1265-1272, which is incorporated herein by reference.

Data set [15] can be described thus: Metal ion binding by continuous variation, Ca2+. The conditions noted are these: Ca^2+, methanol, 1:1 complex. As for the experimental part:
as §2, §3

With `COC(=O)c1cccc2oc(-c3cccc4oc(-c5ccccc5O)nc34)nc12` [UK-1], the IC50 at 72 h in data set [1] was 320 to 65000 nM. The IC50 in [2] was 7000 nM; in data set [5], 400 nM; in data set [5] (Homo sapiens, HL-60, 72 h), 320 nM; in [6] (IMR-32, IMR-32, alamarBlue), 60 nM; in data set [6] (IMR-32, IMR-32, bound stated in text), less than 100 nM; in data set [7] it was 1900 nM. For the same molecule, the IC50 was 20 nM in data set [8] (alamarBlue); less than 100 nM in data set [8] (bound stated); 200 nM in data set [9]; 12000 nM in data set [10]; 170 nM in [11]; 170 nM in [12]. Besides, in data set [3], the growth inhibition result is recorded as “does not inhibit the growth”. Besides, the DNA cleavage result in data set [4] (UK-1 and an oxidant (H2O2), 24 hrs) is given as “significantly more DNA cleavage”; in data set [4] (UK-1 only, 24 hrs, pH 8 Tris buffer) it was “no evidence of DNA cleavage”; in [4] (combination of UK-1, H2O2, and NiCl2, 24 hrs), “particularly active in inducing DNA cleavage”. Further, in [13], the antibacterial effect entry was “no indication of any antibacterial effect”. Besides, the “Association constant for metal ion binding” value in [14] was 250000 M⁻¹; in data set [15], 40000 M⁻¹.
